Test results published in patent US20170150719A1, “FUNGICIDAL PYRAZOLES AND THEIR MIXTURES” (E I DU PONT DE NEMOURS AND COMPANY, priority 2010, published 2017).
Marks after values point to notes of the source that are not given here.

Test system: Alternaria solani
Assay: Test B: tomato early blight, preventive spray on tomato seedlings, visual disease rating
Conditions: tomato early blight, preventive spray; 100 = 100% disease control; rating without asterisk

Compound | Test B rating (% disease control) [%]
CCOc1ccc(-c2c(C)nn(C)c2Nc2c(F)cc(Cl)cc2F)c(Cl)c1 [compound 207] | 99
CCOc1ccc(-c2c(C)nn(C)c2Nc2c(Cl)cc(F)cc2Cl)c(Cl)c1 [compound 208] | 0
CCOc1ccc(-c2c(C)nn(C)c2Nc2ccc(F)cc2F)c(Cl)c1 [compound 209] | 95
Cc1nn(C)c(Nc2c(Cl)cc(Cl)cc2I)c1-c1ccc(F)cc1F [compound 210] | 0
Cc1nn(C)c(Nc2c(F)cc(Br)cc2Br)c1-c1ccc(F)cc1F [compound 211] | 99
Cc1nn(C)c(Nc2c(F)cc(Br)cc2Br)c1-c1ccc(F)cc1Cl [compound 212] | 100

Same assay, conditions: tomato early blight; 100 = 100% disease control, 0 = no disease control relative to the controls

Compound | Test B rating (disease control) [%]
Cc1nn(C)c(Nc2ccc(Br)cc2F)c1-c1ccc(F)cc1Br [compound 169] | 0
Cc1nn(C)c(Nc2c(Cl)cc(Cl)cc2Cl)c1-c1ccc(F)cc1Cl [compound 170] | 0
Cc1nn(C)c(Nc2ccc(Br)cc2Cl)c1-c1ccc(F)cc1Cl [compound 172] | 73
Cc1nn(C)c(Nc2ccc(Br)cc2Cl)c1-c1ccc(F)cc1Br [compound 173] | 0
Cc1nn(C)c(Nc2c(Cl)cc(Cl)cc2Cl)c1-c1ccc(F)cc1Br [compound 174] | 0
Cc1nn(C)c(Nc2ccc(F)cc2I)c1-c1ccc(F)cc1F [compound 175] | 97

Test system: Septoria tritici
Assay: Test F: wheat leaf blotch, preventive spray on wheat seedlings, visual disease rating
Format: in vivo
Conditions: 100 = 100% disease control, 0 = no disease control relative to the controls
Text: (§1) A hyphen (-) indicates no test results.

Compound | Test F rating (disease control) [%]
Cc1nn(C)c(Nc2ccc(Br)cc2F)c1-c1ccc(F)cc1Br [compound 169] | 100
Cc1nn(C)c(Nc2c(Cl)cc(Cl)cc2Cl)c1-c1ccc(F)cc1Cl [compound 170] | 100
Cc1nn(C)c(Nc2ccc(Br)cc2Cl)c1-c1ccc(F)cc1Cl [compound 172] | 100
Cc1nn(C)c(Nc2ccc(Br)cc2Cl)c1-c1ccc(F)cc1Br [compound 173] | 100
Cc1nn(C)c(Nc2c(Cl)cc(Cl)cc2Cl)c1-c1ccc(F)cc1Br [compound 174] | 100
Cc1nn(C)c(Nc2ccc(F)cc2I)c1-c1ccc(F)cc1F [compound 175] | 100

Same assay, conditions: preventive spray, 100 = 100% disease control, rating without asterisk

Compound | Test F rating (% disease control) [%]
CCOc1ccc(-c2c(C)nn(C)c2Nc2c(F)cc(Cl)cc2F)c(Cl)c1 [compound 207] | 100
CCOc1ccc(-c2c(C)nn(C)c2Nc2c(Cl)cc(F)cc2Cl)c(Cl)c1 [compound 208] | 99
CCOc1ccc(-c2c(C)nn(C)c2Nc2ccc(F)cc2F)c(Cl)c1 [compound 209] | 100
Cc1nn(C)c(Nc2c(Cl)cc(Cl)cc2I)c1-c1ccc(F)cc1F [compound 210] | 100
Cc1nn(C)c(Nc2c(F)cc(Br)cc2Br)c1-c1ccc(F)cc1F [compound 211] | 100
Cc1nn(C)c(Nc2c(F)cc(Br)cc2Br)c1-c1ccc(F)cc1Cl [compound 212] | 100

Test system: Puccinia recondita f. sp. tritici
Assay: Test G: wheat leaf rust, spray after inoculation (curative) on wheat seedlings, visual disease rating
Format: in vivo
Conditions: spray after inoculation, 100 = 100% disease control, rating without asterisk
Text: as §1

Compound | Test G rating (% disease control) [%]
CCOc1ccc(-c2c(C)nn(C)c2Nc2c(F)cc(Cl)cc2F)c(Cl)c1 [compound 207] | 0
CCOc1ccc(-c2c(C)nn(C)c2Nc2c(Cl)cc(F)cc2Cl)c(Cl)c1 [compound 208] | 0
CCOc1ccc(-c2c(C)nn(C)c2Nc2ccc(F)cc2F)c(Cl)c1 [compound 209] | 0
Cc1nn(C)c(Nc2c(Cl)cc(Cl)cc2I)c1-c1ccc(F)cc1F [compound 210] | 0
Cc1nn(C)c(Nc2c(F)cc(Br)cc2Br)c1-c1ccc(F)cc1F [compound 211] | 82
Cc1nn(C)c(Nc2c(F)cc(Br)cc2Br)c1-c1ccc(F)cc1Cl [compound 212] | 97

Same assay, conditions: sprayed after inoculation, 100 = 100% disease control, 0 = no disease control

Compound | Test G rating (disease control) [%]
Cc1nn(C)c(Nc2ccc(Br)cc2F)c1-c1ccc(F)cc1Br [compound 169] | 23
Cc1nn(C)c(Nc2c(Cl)cc(Cl)cc2Cl)c1-c1ccc(F)cc1Cl [compound 170] | 79
Cc1nn(C)c(Nc2ccc(Br)cc2Cl)c1-c1ccc(F)cc1Cl [compound 172] | 0
Cc1nn(C)c(Nc2ccc(Br)cc2Cl)c1-c1ccc(F)cc1Br [compound 173] | 0
Cc1nn(C)c(Nc2c(Cl)cc(Cl)cc2Cl)c1-c1ccc(F)cc1Br [compound 174] | 0
Cc1nn(C)c(Nc2ccc(F)cc2I)c1-c1ccc(F)cc1F [compound 175] | 41

Test system: Septoria nodorum
Assay: Test E: Septoria glume blotch, preventive spray on wheat seedlings, visual disease rating
Conditions: Septoria glume blotch on wheat, preventive spray; 100 = 100% disease control; rating without asterisk

Compound | Test E rating (% disease control) [%]
CCOc1ccc(-c2c(C)nn(C)c2Nc2c(F)cc(Cl)cc2F)c(Cl)c1 [compound 207] | 86
CCOc1ccc(-c2c(C)nn(C)c2Nc2c(Cl)cc(F)cc2Cl)c(Cl)c1 [compound 208] | 0
CCOc1ccc(-c2c(C)nn(C)c2Nc2ccc(F)cc2F)c(Cl)c1 [compound 209] | 0
Cc1nn(C)c(Nc2c(Cl)cc(Cl)cc2I)c1-c1ccc(F)cc1F [compound 210] | 0
Cc1nn(C)c(Nc2c(F)cc(Br)cc2Br)c1-c1ccc(F)cc1F [compound 211] | 99
Cc1nn(C)c(Nc2c(F)cc(Br)cc2Br)c1-c1ccc(F)cc1Cl [compound 212] | 100

Same assay, conditions: Septoria glume blotch; 100 = 100% disease control, 0 = no disease control relative to the controls

Compound | Test E rating (disease control) [%]
Cc1nn(C)c(Nc2ccc(Br)cc2F)c1-c1ccc(F)cc1Br [compound 169] | 60
Cc1nn(C)c(Nc2c(Cl)cc(Cl)cc2Cl)c1-c1ccc(F)cc1Cl [compound 170] | 0
Cc1nn(C)c(Nc2ccc(Br)cc2Cl)c1-c1ccc(F)cc1Cl [compound 172] | 60
Cc1nn(C)c(Nc2ccc(Br)cc2Cl)c1-c1ccc(F)cc1Br [compound 173] | 40
Cc1nn(C)c(Nc2c(Cl)cc(Cl)cc2Cl)c1-c1ccc(F)cc1Br [compound 174] | 0
Cc1nn(C)c(Nc2ccc(F)cc2I)c1-c1ccc(F)cc1F [compound 175] | 73

Test system: Botrytis cinerea
Assay: Test A: tomato Botrytis, preventive spray on tomato seedlings, visual disease rating
Conditions: tomato Botrytis, preventive spray; 100 = 100% disease control, 0 = no control relative to controls; rating without asterisk

Compound | Test A rating (% disease control) [%]
CCOc1ccc(-c2c(C)nn(C)c2Nc2c(F)cc(Cl)cc2F)c(Cl)c1 [compound 207] | 94
CCOc1ccc(-c2c(C)nn(C)c2Nc2c(Cl)cc(F)cc2Cl)c(Cl)c1 [compound 208] | 18
CCOc1ccc(-c2c(C)nn(C)c2Nc2ccc(F)cc2F)c(Cl)c1 [compound 209] | 98
Cc1nn(C)c(Nc2c(Cl)cc(Cl)cc2I)c1-c1ccc(F)cc1F [compound 210] | 3
Cc1nn(C)c(Nc2c(F)cc(Br)cc2Br)c1-c1ccc(F)cc1F [compound 211] | 98
Cc1nn(C)c(Nc2c(F)cc(Br)cc2Br)c1-c1ccc(F)cc1Cl [compound 212] | 98

Same assay, conditions: tomato Botrytis; 100 = 100% disease control, 0 = no disease control relative to the controls

Compound | Test A rating (disease control) [%]
Cc1nn(C)c(Nc2ccc(Br)cc2F)c1-c1ccc(F)cc1Br [compound 169] | 100
Cc1nn(C)c(Nc2c(Cl)cc(Cl)cc2Cl)c1-c1ccc(F)cc1Cl [compound 170] | 65
Cc1nn(C)c(Nc2ccc(Br)cc2Cl)c1-c1ccc(F)cc1Cl [compound 172] | 100
Cc1nn(C)c(Nc2ccc(Br)cc2Cl)c1-c1ccc(F)cc1Br [compound 173] | 100
Cc1nn(C)c(Nc2c(Cl)cc(Cl)cc2Cl)c1-c1ccc(F)cc1Br [compound 174] | 95
Cc1nn(C)c(Nc2ccc(F)cc2I)c1-c1ccc(F)cc1F [compound 175] | 100

Test system: Puccinia recondita f. sp. tritici
Assay: Test H: wheat leaf rust, preventive spray on wheat seedlings, visual disease rating
Conditions: wheat leaf rust, preventive spray; 100 = 100% disease control; rating without asterisk

Compound | Test H rating (% disease control) [%]
CCOc1ccc(-c2c(C)nn(C)c2Nc2c(F)cc(Cl)cc2F)c(Cl)c1 [compound 207] | 94
CCOc1ccc(-c2c(C)nn(C)c2Nc2c(Cl)cc(F)cc2Cl)c(Cl)c1 [compound 208] | 85
CCOc1ccc(-c2c(C)nn(C)c2Nc2ccc(F)cc2F)c(Cl)c1 [compound 209] | 92
Cc1nn(C)c(Nc2c(Cl)cc(Cl)cc2I)c1-c1ccc(F)cc1F [compound 210] | 97
Cc1nn(C)c(Nc2c(F)cc(Br)cc2Br)c1-c1ccc(F)cc1F [compound 211] | 100
Cc1nn(C)c(Nc2c(F)cc(Br)cc2Br)c1-c1ccc(F)cc1Cl [compound 212] | 100

Same assay, conditions: wheat leaf rust, sprayed the day before inoculation; 100 = 100% disease control, 0 = no disease control

Compound | Test H rating (disease control) [%]
Cc1nn(C)c(Nc2ccc(Br)cc2F)c1-c1ccc(F)cc1Br [compound 169] | 96
Cc1nn(C)c(Nc2c(Cl)cc(Cl)cc2Cl)c1-c1ccc(F)cc1Cl [compound 170] | 98
Cc1nn(C)c(Nc2ccc(Br)cc2Cl)c1-c1ccc(F)cc1Cl [compound 172] | 100
Cc1nn(C)c(Nc2ccc(Br)cc2Cl)c1-c1ccc(F)cc1Br [compound 173] | 99
Cc1nn(C)c(Nc2c(Cl)cc(Cl)cc2Cl)c1-c1ccc(F)cc1Br [compound 174] | 99
Cc1nn(C)c(Nc2ccc(F)cc2I)c1-c1ccc(F)cc1F [compound 175] | 100

Test system: Blumeria graminis f. sp. tritici
Assay: Test I: wheat powdery mildew, preventive spray on wheat seedlings, visual disease rating
Conditions: wheat powdery mildew, preventive spray; 100 = 100% disease control; rating without asterisk

Compound | Test I rating (% disease control) [%]
CCOc1ccc(-c2c(C)nn(C)c2Nc2c(F)cc(Cl)cc2F)c(Cl)c1 [compound 207] | 99
CCOc1ccc(-c2c(C)nn(C)c2Nc2c(Cl)cc(F)cc2Cl)c(Cl)c1 [compound 208] | 27
CCOc1ccc(-c2c(C)nn(C)c2Nc2ccc(F)cc2F)c(Cl)c1 [compound 209] | 100
Cc1nn(C)c(Nc2c(Cl)cc(Cl)cc2I)c1-c1ccc(F)cc1F [compound 210] | 0
Cc1nn(C)c(Nc2c(F)cc(Br)cc2Br)c1-c1ccc(F)cc1F [compound 211] | 100
Cc1nn(C)c(Nc2c(F)cc(Br)cc2Br)c1-c1ccc(F)cc1Cl [compound 212] | 100

Same assay, conditions: wheat powdery mildew; 100 = 100% disease control, 0 = no disease control relative to the controls

Compound | Test I rating (disease control) [%]
Cc1nn(C)c(Nc2ccc(Br)cc2F)c1-c1ccc(F)cc1Br [compound 169] | 99
Cc1nn(C)c(Nc2c(Cl)cc(Cl)cc2Cl)c1-c1ccc(F)cc1Cl [compound 170] | 79
Cc1nn(C)c(Nc2ccc(Br)cc2Cl)c1-c1ccc(F)cc1Cl [compound 172] | 100
Cc1nn(C)c(Nc2ccc(Br)cc2Cl)c1-c1ccc(F)cc1Br [compound 173] | 99
Cc1nn(C)c(Nc2ccc(F)cc2I)c1-c1ccc(F)cc1F [compound 175] | 100

Same assay, conditions: wheat powdery mildew; rating marked with asterisk (*), not explained in the text shown

Compound | Test I rating (disease control), value marked *
Cc1nn(C)c(Nc2c(Cl)cc(Cl)cc2Cl)c1-c1ccc(F)cc1Br [compound 174] | 99* %
